Data as given in patent publication US10562878B2, “Cycloalkylamines as monoamine reuptake inhibitors” (Sunovion Pharmaceuticals Inc., priority 2006, dated 2020).
Where two headings read alike, the source gives them in different places.

Tests used:
[1] = target: human dopamine transporter (Homo sapiens (Human), UniProt Q01959); test: Dopamine functional uptake assay, recombinant human transporter in CHO-K1 or HEK293 cells; type: cell-based; settings: read-out: hDAT IC50
[2] = target: DA Transporter (DAT) sites in mouse brain (Mus musculus (Mouse), UniProt Q61327); test: Ex vivo [3H] WIN 35428 binding to DAT sites in mouse brain after oral dosing; settings: mice, 60 min after treatment
[3] = target: 5-HT Transporter (SERT) sites in mouse brain (Mus musculus (Mouse), UniProt Q60857); test: Ex vivo [3H] citalopram binding to SERT sites in mouse brain after oral dosing; settings: mice, 60 min after treatment
[4] = target: T1, Norepinephrine Transporter (NET) sites in mouse brain (Mus musculus (Mouse), UniProt O55192); settings: mice, 60 min after treatment
[5] = test system: mice; test: Mouse tail suspension test; type: in vivo
[6] = target: human serotonin transporter (Homo sapiens (Human), UniProt P31645); test: Serotonin functional uptake assay, recombinant human transporter in HEK-293 cells; type: cell-based; settings: Human serotonin transporter uptake; read-out: hSERT IC50
Chain of human serotonin transporter (P31645 whole entry): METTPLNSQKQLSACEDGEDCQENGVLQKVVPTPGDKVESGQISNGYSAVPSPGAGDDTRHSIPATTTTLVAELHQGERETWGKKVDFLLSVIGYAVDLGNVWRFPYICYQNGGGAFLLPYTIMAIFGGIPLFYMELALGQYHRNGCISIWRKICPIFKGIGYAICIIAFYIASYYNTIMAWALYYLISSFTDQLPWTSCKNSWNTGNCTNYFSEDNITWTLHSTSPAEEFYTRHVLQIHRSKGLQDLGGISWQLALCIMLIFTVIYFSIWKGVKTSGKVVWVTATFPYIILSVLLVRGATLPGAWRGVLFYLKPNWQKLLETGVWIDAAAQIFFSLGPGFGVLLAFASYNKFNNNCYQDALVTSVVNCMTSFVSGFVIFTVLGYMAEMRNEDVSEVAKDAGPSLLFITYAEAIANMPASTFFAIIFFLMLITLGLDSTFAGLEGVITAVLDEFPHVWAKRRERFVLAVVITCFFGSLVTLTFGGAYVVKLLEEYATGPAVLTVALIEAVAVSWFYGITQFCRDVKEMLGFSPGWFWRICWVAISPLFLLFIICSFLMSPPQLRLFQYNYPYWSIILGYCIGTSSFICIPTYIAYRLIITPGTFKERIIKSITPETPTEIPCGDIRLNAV

[7] = test system: Rats; test: Rat forced swim test; type: in vivo
[8] = target: T1, Norepinephrine Transporter (NET) sites in mouse brain; test: in vivo; settings: po, read-out: NET % Transporter Occupancy
[9] = target: rat serotonin (5-HT) reuptake transporter (Rattus norvegicus (Rat), UniProt P31652); test: Serotonin functional uptake assay, rat synaptosomes; type: biochemical; settings: read-out: rSERT IC50
[10] = target: rat dopamine reuptake transporter (Rattus norvegicus (Rat), UniProt P23977); test: Dopamine functional uptake assay, rat striatal synaptosomes; type: biochemical; settings: read-out: rDAT IC50
[11] = in vivo; cited from earlier work
[12] = test system: mice; test: Mouse locomotor activity; type: in vivo; settings: 30 mg/kg PO
[13] = target: human norepinephrine reuptake transporter (Homo sapiens (Human), UniProt P23975); settings: cited from earlier work

Chain of human dopamine transporter (Q01959 whole entry): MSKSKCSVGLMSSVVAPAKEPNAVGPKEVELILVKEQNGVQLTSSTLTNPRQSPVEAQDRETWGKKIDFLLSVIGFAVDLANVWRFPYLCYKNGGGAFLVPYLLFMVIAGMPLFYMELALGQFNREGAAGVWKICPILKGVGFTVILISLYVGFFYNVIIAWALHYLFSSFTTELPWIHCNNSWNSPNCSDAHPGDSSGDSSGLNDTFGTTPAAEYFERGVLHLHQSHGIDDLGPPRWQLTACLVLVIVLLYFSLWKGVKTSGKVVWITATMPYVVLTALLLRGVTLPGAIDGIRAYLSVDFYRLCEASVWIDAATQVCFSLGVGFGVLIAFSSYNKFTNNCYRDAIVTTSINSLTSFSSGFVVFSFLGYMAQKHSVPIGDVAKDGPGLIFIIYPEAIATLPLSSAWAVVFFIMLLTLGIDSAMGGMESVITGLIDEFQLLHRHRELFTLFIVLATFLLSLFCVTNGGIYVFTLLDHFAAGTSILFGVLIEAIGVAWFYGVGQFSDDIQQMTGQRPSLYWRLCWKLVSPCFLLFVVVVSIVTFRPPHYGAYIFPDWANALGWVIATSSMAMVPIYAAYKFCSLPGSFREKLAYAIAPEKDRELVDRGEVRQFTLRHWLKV

What does the source list for CN(C)C[C@]1(c2ccc(Cl)c(Cl)c2)CCCC[C@H]1O (relative stereo) [153 E2, trans-2-(3,4-dichlorophenyl)-2-((dimethylamino)methyl)cyclohexanol]?
IC50 [1]: 25 nM; DAT Mean Specific Binding ± S.E.M. ([2]; 1 mg/kg PO): 22774 ± 916 dpm; DAT Mean Specific Binding ± S.E.M. ([2]; 3 mg/kg PO): 24159 ± 1313 dpm; DAT Mean Specific Binding ± S.E.M. ([2]; 30 mg/kg PO): 16194 ± 1293 dpm; receptor occupancy at 1 mg/kg ([2]; mouse, 1 mg/kg PO): -10%; receptor occupancy at 3 mg/kg ([2]; mouse, 3 mg/kg PO): -16%; receptor occupancy at 10 mg/kg ([2]; mouse, 10 mg/kg PO): -6%; receptor occupancy at 30 mg/kg ([2]; mouse, 30 mg/kg PO): 22%; SERT Mean Specific Binding ± S.E.M. ([3]; 1 mg/kg PO): 3271 ± 199 dpm; SERT Mean Specific Binding ± S.E.M. ([3]; 3 mg/kg PO): 2968 ± 100 dpm; SERT Mean Specific Binding ± S.E.M. ([3]; 10 mg/kg PO): 2327 ± 150 dpm; SERT Mean Specific Binding ± S.E.M. ([3]; 30 mg/kg PO): 1359 ± 89 dpm; receptor occupancy at 1 mg/kg ([3]; mouse, 1 mg/kg PO): -1%; receptor occupancy at 3 mg/kg ([3]; mouse, 3 mg/kg PO): 8%; receptor occupancy at 10 mg/kg ([3]; mouse, 10 mg/kg PO): 28%; receptor occupancy at 30 mg/kg ([3]; mouse, 30 mg/kg PO): 58%; NET Mean Specific Binding ± S.E.M. ([4]; 1 mg/kg PO): 1804 ± 79 dpm; NET Mean Specific Binding ± S.E.M. ([4]; 3 mg/kg PO): 1726 ± 44 dpm; NET Mean Specific Binding ± S.E.M. ([4]; 10 mg/kg PO): 1734 ± 62 dpm; NET Mean Specific Binding ± S.E.M. ([4]; 30 mg/kg PO): 1140 ± 53 dpm; Mouse Tail Suspension Mean Immobility Time ± S.E.M. ([5]; 10 mg/kg PO): 170.2 ± 6.3; Mouse Tail Suspension Mean Immobility Time ± S.E.M. ([5]; 30 mg/kg PO): 154.5 ± 8.4; IC50 [6]: 64 nM; Rat Forced Swim Climbing (Means ± S.E.M.) ([7]; 3 mg/kg PO): 8.8 ± 1.5; Rat Forced Swim Immobility (Means ± S.E.M.) ([7]; 3 mg/kg PO): 49.9 ± 1.7; Rat Forced Swim Swimming (Means ± S.E.M.) ([7]; 3 mg/kg PO): 1.9 ± 0.8; Rat Forced Swim Climbing (Means ± S.E.M.) ([7]; 10 mg/kg PO): 11.7 ± 1.8; Rat Forced Swim Immobility (Means ± S.E.M.) ([7]; 10 mg/kg PO): 44.0 ± 2.1; Rat Forced Swim Swimming (Means ± S.E.M.) ([7]; 10 mg/kg PO): 4.3 ± 1.1; Rat Forced Swim Climbing (Means ± S.E.M.) ([7]; 30 mg/kg PO): 22.2 ± 5.2; Rat Forced Swim Immobility (Means ± S.E.M.) ([7]; 30 mg/kg PO): 31.3 ± 6.7; Rat Forced Swim Swimming (Means ± S.E.M.) ([7]; 30 mg/kg PO): 4.6 ± 1.3; receptor occupancy at 1 mg/kg [8]: 6%; receptor occupancy at 3 mg/kg [8]: 10%; receptor occupancy at 10 mg/kg [8]: 9%; receptor occupancy at 30 mg/kg [8]: 40%

For CN(C)C[C@]1(c2ccc(Cl)c(Cl)c2)CC[C@H](O)CC1 [Compound 288, (1s,4s)-4-(3,4-dichlorophenyl)-4-((dimethylamino)methyl)-cyclohexanol], which IC50 [1] is on record?
The IC50 was 22 nM.

What about the IC50 [9] of the same molecule?
The IC50 was 67 nM.

And the IC50 [6]?
Its IC50 is 84 nM.

What about the IC50 [10] of the same molecule?
Its IC50 is 370 nM.

Which “immobility in the tail suspension test” value [11] does the source give for Clc1ccc(C23CNCC2C3)cc1Cl (single isomer, unassigned) [DOV 21,947, H-1-(3,4-dichlorophenyl)-3-azabicyclo[3.1.0]hexane] here?
Its value is “dose-dependent reduction in immobility”.

Which “Mouse Locomotor Activity Total Distance Traveled ± S.E.M.” value [12] does the source give for CNC(C)C1(c2ccc(Cl)c(Cl)c2)CCCCC1 (single isomer, unassigned) [44 E1, 1-(1-(3,4-dichlorophenyl)cyclohexyl)-N-methylethanamine] here?
Its value is 402.3 ± 71.0.

What about the “Mouse Tail Suspension Mean Immobility Time ± S.E.M.” value ([5]; 30 mg/kg PO) of the same molecule?
The value was 120.4 ± 9.0.

Which “reported potency (IC50 or Ki), inhibition of human norepinephrine reuptake transporter” value [13] does the source give for COC(=O)C(c1ccccc1)C1CCCCN1 (centres unmarked) [methylphenidate] here?
The value was 38 nM.
